According to US8293721B2, “CETP inhibitors derived from benzoxazole arylamides” (Merck Sharpe & Dohme Corp., priority 2007, dated 2012):

Target: T1, recombinant human CETP (Homo sapiens, UniProt P11597)
T1 construct: made in house; host or cells: CHO cells
T1 sequence (P11597 18-493): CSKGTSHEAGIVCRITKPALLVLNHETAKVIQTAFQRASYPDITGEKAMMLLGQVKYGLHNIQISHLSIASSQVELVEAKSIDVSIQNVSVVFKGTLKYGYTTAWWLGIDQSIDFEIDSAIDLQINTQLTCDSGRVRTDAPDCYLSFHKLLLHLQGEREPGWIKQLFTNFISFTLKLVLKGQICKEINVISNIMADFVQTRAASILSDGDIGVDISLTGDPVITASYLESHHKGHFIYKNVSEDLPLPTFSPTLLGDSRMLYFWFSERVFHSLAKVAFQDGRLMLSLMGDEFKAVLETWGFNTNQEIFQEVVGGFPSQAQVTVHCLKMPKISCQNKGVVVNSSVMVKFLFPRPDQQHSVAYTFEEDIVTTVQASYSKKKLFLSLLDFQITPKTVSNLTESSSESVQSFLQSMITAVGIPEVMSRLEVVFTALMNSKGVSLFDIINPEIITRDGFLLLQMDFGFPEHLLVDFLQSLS
Experiment: In vitro continuous CETP assay, CE transfer reaction (BODIPY-CE donor particles, fluorescence)
Assay type: biochemical
Conditions: 25° C., 3% human serum, stated for the compounds 'or a stereoisomer of the compounds', read-out: IC50 value as measured for the CE transfer reaction
Protocol: An in vitro continuous assay for determining IC50's to identify compounds that are CETP inhibitors was performed based on a modification of the method described by Epps et al. employing BODIPY®-CE as the cholesteryl ester lipid donor and BODIPY®-TG as the triglyceride lipid donor. See Epps et al. (1995) Method for measuring the activities of cholesteryl ester transfer protein (lipid transfer protein), Chem. Phys. Lipids. 77, 51-63.
Particles used in the assay were created from the following materials by probe sonication essentially as described by Epps et al. Synthetic cholesteryl ester (CE) donor HDL particles contained DOPC (Dioleoyl Phosphatidyl Choline), BODIPY®-CE (Molecular Probes C-3927), triolein (a triglyceride), dabcyl dicetylamide, (a non-diffusable quencher molecule to reduce background fluorescence) and apoHDL. Synthetic triglyceride (TG) donor HDL particles contained DOPC, BODIPY®-TG, and apoHDL. BODIPY®-TG was synthesized at room temperature from diolein and the BODIPY containing fatty acid analog 4,4-difluoro-5-(2-thienyl)-4-bora-3a,4a-diaza-s-indacene-3-dodecanoic acid (Molecular Probes) in methylene chloride in the presence of dicyclohexyl carbodimide. Dabcyl dicetylamide was made by heating dabcyl n-succinimide with dicetylamine in DMF at 95° C. overnight in the presence of diisopropylamine catalyst. Native lipoproteins from human blood were used as acceptor particles. Particles having a density less than 1.063 g/ml were collected by ultracentrifugation. These particles include VLDL, IDL, and LDL. Particle concentrations were expressed in terms of protein concentration as determined by BCA assay (Pierce, USA). Particles were stored at 4° C. until use.
Assays were performed in Dynex Microfluor 2 U-bottom black 96-well plates (Cat #7205). An assay cocktail containing CETP, 1×CETP buffer (50 mM Tris, pH 7.4, 100 mM NaCl, 1 mM EDTA), 3% human serum, and half the final concentration of acceptor particles was prepared, and 100 μL of the assay cocktail was added to each well of the plate. Test compounds in DMSO were added in a volume of 3 μL. The plate was mixed on a plate shaker and then incubated at 25° C. for 1 hour. A second assay cocktail containing donor particles, the remaining acceptor particles and 1×CETP buffer was prepared. 47 μL of the second assay cocktail was added to the reaction wells to start the assay. Assays were performed in a final volume of 150 μL. CE transfer reactions were performed as follows: final concentrations of materials were: 2.5 ng/μL CE donor particles, 7.5 ng/μL acceptor particles (each expressed by protein content), 1×CETP buffer, 14-30 nM recombinant human CETP (expressed in CHO cells and partially purified), and up to 2% DMSO when testing compounds; reactions were followed in a fluorescence plate reader (Molecular Devices Spectramax GeminiXS) set for a 45 minute kinetic run at 25° C. which read the samples every 45 sec at Ex=480 nm, Em=511 nm, with a cutoff filter at 495 nm, photomultiplier tube setting of medium, calibration on, and 6 reads/well. TG transfer reactions were performed as described above with the exception that 2.5 ng/uL TG donor particles were used. TG transfer was measured at an excitation wavelength of 538 nm while reading emission at 568 nm every 45 sec for 45 min at 37° C. with a cutoff filter at 550 nm.
Data were evaluated by obtaining an initial rate, expressed in relative fluorescence units per second, for the pseudolinear portion of the curve, often 0-500 or 1000 sec. Comparison of the rates of samples with inhibitors to an uninhibited (DMSO only) positive control yielded a percent inhibition. A plot of percent inhibition vs. log of inhibitor concentration, fit to a Sigmoidal 4 parameter equation was used to calculate IC50.

IC50 | Compound
18 to 100 nM | CC(C)c1cc(C#N)cc2nc(-c3ccc(C(=O)NCC4CN(c5ccc(-c6ccccc6OC(F)(F)F)cn5)C(=O)O4)cc3)oc12 (stereo not shown) [Example 2, 4-(5-Cyano-7-isopropyl-1,3-benzoxazol-2-yl)-N-[(2-oxo-3-{5-[2-(trifluoromethoxy)phenyl]pyridin-2-yl}-1,3-oxazolidin-5-yl)methyl]benzamide]
18 to 100 nM | CC(C)COc1ccccc1-c1ccc(N2CC(CNC(=O)c3ccc(-c4nc5cc(C#N)cc(C(C)C)c5o4)cc3)OC2=O)nc1 (stereo not shown) [Example 7]
18 to 100 nM | CC(C)Oc1ccc(F)cc1-c1ccc(N2C[C@@H](CNC(=O)c3ccc(-c4nc5cc(C#N)cc(C(C)C)c5o4)cc3)OC2=O)nc1 [Example 30]
18 to 100 nM | COc1cc(F)c(C(C)C)cc1-c1ccc(N2C[C@@H](CNC(=O)c3ccc(-c4nc5cc(C#N)cc(C(C)C)c5o4)cc3)OC2=O)nc1 [Example 31]
18 to 100 nM | COc1ccccc1-c1ccc(N2C[C@H](CNC(=O)c3ccc(-c4nc5cc(C#N)cc(C(C)C)c5o4)cc3)OC2=O)nc1 [Example 43]
18 to 100 nM | CC(C)Oc1cccc(F)c1-c1ccc(N2C[C@H](CNC(=O)c3ccc(-c4nc5cc(C#N)cc(C(C)C)c5o4)cc3)OC2=O)nc1 [Example 48]

Further lines, the compound ahead of its results:

Compound | IC50
CC(C)c1cc(C#N)cc2nc(-c3ccc(C(=O)NCC4(C)CN(c5ccc(-c6ccccc6OC(F)(F)F)cn5)C(=O)O4)cc3)oc12 (stereo not shown) [Example 51, 4-(5-Cyano-7-isopropyl-1,3-benzoxazol-2-yl)-N-[(5-methyl-2-oxo-3-{5-[2-(trifluoro-methoxy)phenyl]pyridin-2-yl}-1,3-oxazolidin-5-yl)methyl]benzamide] | 18 to 100 nM
COc1ccccc1-c1ccc(N2CC(C)(CNC(=O)c3ccc(-c4nc5cc(C#N)cc(C(C)C)c5o4)cc3)OC2=O)nc1 (stereo not shown) [Example 53] | 18 to 100 nM
CC(C)Oc1ccc(F)cc1-c1ccc(N2CC(C)(CNC(=O)c3ccc(-c4nc5cc(C#N)cc(C(C)C)c5o4)cc3)OC2=O)nc1 (stereo not shown) [Example 54] | 18 to 100 nM
CC(C)c1cc(C#N)cc2nc(-c3ccc(C(=O)NCC4(C)CN(c5ccc(-c6ccccc6)cn5)C(=O)O4)cc3)oc12 (stereo not shown) [Example 55] | 18 to 100 nM
